The results in this text go back to patent US6399598B1, “Diheterocyclic metalloprotease inhibitors” (The Procter & Gamble Company, priority 1996, dated 2002).

Type in all cases: in vivo
One assay deals with rheumatoid arthritis. Put plainly: Treatment of a rheumatoid arthritis patient with oral tablets (Example A). The following applies: human female, three 15 mg tablets per day orally for 2 years. Here is the method:
A tablet composition for oral administration, according to the present invention, is made comprising:
A human subject weighing 60 kg (132 lbs), suffering from rheumatoid arthritis, is treated by a method of this invention. Specifically, for 2 years, a regimen of three tablets per day is administered orally to said subject.

Another assay relates to premetastatic tumor. Briefly: Injection beside a premetastatic tumor in a human subject (Example G). As to conditions: 100 mg/ml suspension, approx. 2.0 ml injected beside the tumor twice daily, after 30 days. How it is done:
A composition for parenteral administration is made comprising: The above ingredients are mixed, forming a suspension. Approximately 2.0 ml of the suspension is administered, via injection, to a human subject with a premetastatic tumor. The injection site juxtaposes the tumor. This dosage is repeated twice daily, for approximately 30 days.

The subject of a further assay is osteoarthritis. Briefly: Treatment of an osteoarthritis patient with oral capsules (Example B). As to conditions: human male, capsule with 70 mg daily for 5 years. Here is the method: A capsule for oral administration, according to the present invention, is made comprising:
A human subject weighing 90 kg (198 lbs), suffering from osteoarthritis, is treated by a method of this invention. Specifically, for 5 years, a capsule containing 70 mg of Example 3 is administered daily to said subject.

Another assay has as its system chemical burns. Put plainly: Topical composition in a patient with chemical burns (Example D). As to conditions: 0.20% w/v topical composition at each dressing change (b.i.d.). The text has this: An topical composition for local administration, according to the present invention, is made comprising:
A patient suffering from chemical burns applies the composition at each dressing change (b.i.d.).

Each structure is given as a SMILES string.

For the compound `COc1ccc(S(=O)(=O)N2CCSCCC2C(=O)NO)cc1` (centres unmarked) [Example 9, N-Hydroxy-4-[(4-methoxyphenyl)sulfonyl]-thiazepine-5-carboxamide], in the assay with rheumatoid arthritis, the “inflammation at the end of the treatment period” value is on record as “reduced inflammation”; the “mobility and pain at the end of the treatment period” value is listed as “improved mobility without concomitant pain”. `COc1ccc(S(=O)(=O)N2CCN(C(C)C)C(=O)C[C@@H]2C(=O)NO)cc1` [Example 4, N-Hydroxy 1-(1-Methylethyl)-4-[(4-methoxyphenyl)sulfonylamino]-7-oxo-1,4-diazepine-5(R)-carboxamide]: the “symptoms of the disease” value in the assay on premetastatic tumor is given as “symptoms of the disease subside”. For the compound `COc1ccc(S(=O)(=O)N2CN(Cc3ccccc3)C(=O)C(C)(C)C2C(=O)NO)cc1` (racemic) [Example 3, N-Hydroxy 1-Benzyl-5,5-dimethyl-3-[(4-methoxyphenyl)sulfonyl]-6-oxo-hexahydro-pyrimidine-4(R,S)-carboxamide], the “erosion/fibrillation of the articular cartilage, examined via orthoscopy” value in the assay with osteoarthritis is “no further advancement of erosion/fibrillation of the articular cartilage”. In addition, in the assay with chemical burns, the scarring entry was “Scarring is substantially diminished”.
